Assay results from patent publication US9695155B2, “Herbicidal substituted pyrimidinyloxy benzene compounds” (E. I. DU PONT DE NEMOURS AND COMPANY, priority 2013, dated 2017).

How the values were obtained:
large (Lg) crabgrass [1] = experiment: Test C postemergence; assay type: in vivo, Digitaria sanguinalis; conditions: for Plant response rating (0 to 100), Crabgrass, Large: postemergence; for Plant response rating, Crabgrass, Large: Postemergence, scale 0 to 100 (0 no effect, 100 complete control)
Method in brief: (§1)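 Whole-plant greenhouse test with surfactant-containing solvent formulation, applied preemergence to sown loam–sand pots or postemergence to 2–18 cm plants. Scored by eye 13 to 15 days on, 0–100 scale.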

corn [2] = experiment: Test C postemergence; assay type: in vivo, Zea mays; conditions: for Plant response rating (0 to 100), Corn: postemergence; for Plant response rating, Corn: Postemergence, scale 0 to 100 (0 no effect, 100 complete control)
Method in brief: as §1

giant foxtail = experiment: Test C postemergence; assay type: in vivo, Setaria faberii; conditions: for Plant response rating (0 to 100), Foxtail, Giant: postemergence; for Plant response rating, Foxtail, Giant: Postemergence, scale 0 to 100 (0 no effect, 100 complete control)
Method in brief: as §1

waterhemp = experiment: Test C postemergence; assay type: in vivo, Amaranthus rudis; conditions: for Plant response rating (0 to 100), Waterhemp: postemergence; for Plant response rating, Waterhemp: Postemergence, scale 0 to 100 (0 no effect, 100 complete control)
Method in brief: as §1

corn [3] = experiment: Test A preemergence; assay type: in vivo, Zea mays; conditions: for Corn plant response rating: 500 g ai/ha, approx. 10 days
Method in brief: (§2)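 Pre- and postemergence greenhouse screen. Soil: loam + sand. Spray carrier: solvent mixture, non-phytotoxic, with surfactant. Post timing at 1–2 leaves, height 2–10 cm. Readout: visual injury on a 0–100 scale roughly 10 days after application, untreated plants as reference.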

lambsquarters = experiment: Test C postemergence; assay type: in vivo, Chenopodium album; conditions: for Plant response rating (0 to 100), Lambsquarters: postemergence; for Plant response rating, Lambsquarters: Postemergence, scale 0 to 100 (0 no effect, 100 complete control)
Method in brief: as §1

large (Lg) crabgrass [4] = experiment: Test A postemergence; assay type: in vivo, Digitaria sanguinalis
Method in brief: as §2

wheat = experiment: Test A preemergence; assay type: in vivo, Triticum aestivum; conditions: for Plant response rating, Wheat: 125 g ai/ha, 0 to 100 scale where 0 is no effect and 100 is complete control; for Wheat plant response rating: 0 to 100 scale, 0 no effect, 100 complete control, approx. 10 days
Method in brief: as §2

wheat, winter = experiment: Test C postemergence; assay type: in vivo, Triticum aestivum; conditions: for Plant response rating (0 to 100), Wheat: postemergence; for Plant response rating, Wheat: Postemergence, scale 0 to 100 (0 no effect, 100 complete control)
Method in brief: as §1

chickweed = experiment: Test C postemergence; assay type: in vivo, Stellaria media; conditions: for Plant response rating (0 to 100), Chickweed: postemergence; for Plant response rating, Chickweed: Postemergence, scale 0 to 100 (0 no effect, 100 complete control)
Method in brief: as §1

barnyardgrass [5] = experiment: Test C postemergence; assay type: in vivo, Echinochloa crus-galli; conditions: for Plant response rating (0 to 100), Barnyardgrass: postemergence; for Plant response rating, Barnyardgrass: Postemergence, scale 0 to 100 (0 no effect, 100 complete control)
Method in brief: as §1

barnyardgrass [6] = experiment: Test B flooded paddy test; assay type: in vivo, Echinochloa crus-galli; conditions: Flood, 250 g ai/ha; 0 to 100 scale where 0 is no effect and 100 is complete control
Method in brief: (§3)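 Flooded to 3 cm at the 2-leaf stage, pots received compound through the paddy water and were kept at that depth under greenhouse conditions. After 13–15 days, effect was rated by eye relative to controls, 0 = none and 100 = complete control.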

sedge, umbrella = experiment: Test B flooded paddy test; assay type: in vivo, Cyperus difformis; conditions: Flood, 250 g ai/ha; 0 to 100 scale where 0 is no effect and 100 is complete control
Method in brief: as §3

[7] = 125 g ai/ha, 0 to 100 scale where 0 is no effect and 100 is complete control
[8] = 0 to 100 scale, 0 no effect, 100 complete control
[9] = 500 g ai/ha, 0 to 100 scale, 0 no effect, 100 complete control
[10] = 8 g ai/ha, 0 is no effect, 100 is complete control
[11] = 16 g ai/ha, 0 is no effect, 100 is complete control
[12] = 4 g ai/ha, 0 is no effect, 100 is complete control
[13] = 1000 g ai/ha, 0 to 100 scale, 0 no effect, 100 complete control

N#Cc1cccc(Oc2ncc(Cl)cn2)c1-n1cnc(Br)c1 [Compound 74]
Plant response rating (0 to 100), Crabgrass, Large (large (Lg) crabgrass [1]; 125 g ai/ha): 15 | Plant response rating (0 to 100), Crabgrass, Large (large (Lg) crabgrass [1]; 250 g ai/ha): 20 | Plant response rating, Crabgrass, Large (large (Lg) crabgrass [1]; 31 g ai/ha, 13 to 15 days): 5 | Plant response rating, Crabgrass, Large (large (Lg) crabgrass [1]; 62 g ai/ha): 5 | Plant response rating (0 to 100), Corn (corn [2]; 125 g ai/ha): 15 | Plant response rating (0 to 100), Corn (corn [2]; 250 g ai/ha): 20 | Plant response rating, Corn (corn [2]; 31 g ai/ha, 13 to 15 days): 10 | Plant response rating, Corn (corn [2]; 62 g ai/ha): 10 | Plant response rating (0 to 100), Foxtail, Giant (giant foxtail; 125 g ai/ha): 10 | Plant response rating (0 to 100), Foxtail, Giant (giant foxtail; 250 g ai/ha): 20 | Plant response rating, Foxtail, Giant (giant foxtail; 31 g ai/ha, 13 to 15 days): 5 | Plant response rating, Foxtail, Giant (giant foxtail; 62 g ai/ha): 5 | Plant response rating (0 to 100), Waterhemp (waterhemp; 125 g ai/ha): 60 | Plant response rating (0 to 100), Waterhemp (waterhemp; 250 g ai/ha): 80 | Plant response rating, Waterhemp (waterhemp; 31 g ai/ha, 13 to 15 days): 35 | Plant response rating, Waterhemp (waterhemp; 62 g ai/ha): 60 | Plant response rating, Corn (corn [3]; [7]): 0 | Corn plant response rating (corn [3]; [8]): 40 | Plant response rating (0 to 100), Lambsquarters (lambsquarters; 125 g ai/ha): 75 | Plant response rating (0 to 100), Lambsquarters (lambsquarters; 250 g ai/ha): 85 | Plant response rating, Lambsquarters (lambsquarters; 31 g ai/ha, 13 to 15 days): 40 | Plant response rating, Lambsquarters (lambsquarters; 62 g ai/ha): 75 | Plant response rating, Crabgrass, Large (large (Lg) crabgrass [4]; [7]): 70 | Plant response rating, Crabgrass, Large (large (Lg) crabgrass [4]; [9]): 90 | Plant response rating, Wheat (wheat): 0 | Wheat plant response rating (wheat; 500 g ai/ha): 40 | Plant response rating (0 to 100), Wheat (wheat, winter; 125 g ai/ha): 0 | Plant response rating (0 to 100), Wheat (wheat, winter; 250 g ai/ha): 5 | Plant response rating, Wheat (wheat, winter; 31 g ai/ha, 13 to 15 days): 0 | Plant response rating, Wheat (wheat, winter; 62 g ai/ha): 0 | Plant response rating (0 to 100), Chickweed (chickweed; 125 g ai/ha): 50 | Plant response rating (0 to 100), Chickweed (chickweed; 250 g ai/ha): 50 | Plant response rating, Chickweed (chickweed; 31 g ai/ha, 13 to 15 days): 25 | Plant response rating, Chickweed (chickweed; 62 g ai/ha): 30 | Plant response rating (0 to 100), Barnyardgrass (barnyardgrass [5]; 125 g ai/ha): 5 | Plant response rating (0 to 100), Barnyardgrass (barnyardgrass [5]; 250 g ai/ha): 15 | Plant response rating, Barnyardgrass (barnyardgrass [5]; 31 g ai/ha, 13 to 15 days): 0 | Plant response rating, Barnyardgrass (barnyardgrass [5]; 62 g ai/ha): 5 | Plant response rating, Barnyardgrass (barnyardgrass [6]): 0 | Plant response rating, Sedge, Umbrella (sedge, umbrella): 70

N#Cc1cccc(Oc2ncc(F)cn2)c1-n1cc(Br)cn1 [Compound 62]
Plant response rating (0 to 100), Crabgrass, Large (large (Lg) crabgrass [1]; 125 g ai/ha): 10 | Plant response rating (0 to 100), Crabgrass, Large (large (Lg) crabgrass [1]; 250 g ai/ha): 35 | Plant response rating, Crabgrass, Large (large (Lg) crabgrass [1]; 31 g ai/ha, 13 to 15 days): 5 | Plant response rating, Crabgrass, Large (large (Lg) crabgrass [1]; 62 g ai/ha): 5 | Plant response rating (0 to 100), Corn (corn [2]; 125 g ai/ha): 15 | Plant response rating (0 to 100), Corn (corn [2]; 250 g ai/ha): 20 | Plant response rating, Corn (corn [2]; 31 g ai/ha, 13 to 15 days): 5 | Plant response rating, Corn (corn [2]; 62 g ai/ha): 15 | Plant response rating (0 to 100), Foxtail, Giant (giant foxtail; 125 g ai/ha): 20 | Plant response rating (0 to 100), Foxtail, Giant (giant foxtail; 250 g ai/ha): 25 | Plant response rating, Foxtail, Giant (giant foxtail; 31 g ai/ha, 13 to 15 days): 5 | Plant response rating, Foxtail, Giant (giant foxtail; 62 g ai/ha): 10 | Plant response rating (0 to 100), Waterhemp (waterhemp; 125 g ai/ha): 75 | Plant response rating (0 to 100), Waterhemp (waterhemp; 250 g ai/ha): 75 | Plant response rating, Waterhemp (waterhemp; 31 g ai/ha, 13 to 15 days): 40 | Plant response rating, Waterhemp (waterhemp; 62 g ai/ha): 60 | Plant response rating, Corn (corn [3]; [7]): 0 | Corn plant response rating (corn [3]; [8]): 90 | Plant response rating (0 to 100), Lambsquarters (lambsquarters; 125 g ai/ha): 85 | Plant response rating (0 to 100), Lambsquarters (lambsquarters; 250 g ai/ha): 90 | Plant response rating, Lambsquarters (lambsquarters; 31 g ai/ha, 13 to 15 days): 60 | Plant response rating, Lambsquarters (lambsquarters; 62 g ai/ha): 60 | Plant response rating, Crabgrass, Large (large (Lg) crabgrass [4]; [7]): 90 | Plant response rating, Crabgrass, Large (large (Lg) crabgrass [4]; [9]): 100 | Plant response rating, Wheat (wheat): 0 | Wheat plant response rating (wheat; 500 g ai/ha): 80 | Plant response rating (0 to 100), Wheat (wheat, winter; 125 g ai/ha): 5 | Plant response rating (0 to 100), Wheat (wheat, winter; 250 g ai/ha): 20 | Plant response rating, Wheat (wheat, winter; 31 g ai/ha, 13 to 15 days): 0 | Plant response rating, Wheat (wheat, winter; 62 g ai/ha): 0 | Plant response rating (0 to 100), Chickweed (chickweed; 125 g ai/ha): 75 | Plant response rating (0 to 100), Chickweed (chickweed; 250 g ai/ha): 90 | Plant response rating, Chickweed (chickweed; 31 g ai/ha, 13 to 15 days): 50 | Plant response rating, Chickweed (chickweed; 62 g ai/ha): 50 | Plant response rating (0 to 100), Barnyardgrass (barnyardgrass [5]; 125 g ai/ha): 5 | Plant response rating (0 to 100), Barnyardgrass (barnyardgrass [5]; 250 g ai/ha): 10 | Plant response rating, Barnyardgrass (barnyardgrass [5]; 31 g ai/ha, 13 to 15 days): 0 | Plant response rating, Barnyardgrass (barnyardgrass [5]; 62 g ai/ha): 5 | Plant response rating, Barnyardgrass (barnyardgrass [6]): 0 | Plant response rating, Sedge, Umbrella (sedge, umbrella): 80

CC(=NO)c1cn(-c2c(Br)cccc2Oc2ncc(Cl)cn2)nn1 [Compound 115]
Plant response rating (0 to 100), Crabgrass, Large (large (Lg) crabgrass [1]; [10]): 5 | Plant response rating (0 to 100), Crabgrass, Large (large (Lg) crabgrass [1]; [11]): 5 | Plant response rating (0 to 100), Corn (corn [2]; [12]): 5 | Plant response rating (0 to 100), Corn (corn [2]; [10]): 10 | Plant response rating (0 to 100), Corn (corn [2]; [11]): 5 | Plant response rating (0 to 100), Foxtail, Giant (giant foxtail; [10]): 5 | Plant response rating (0 to 100), Foxtail, Giant (giant foxtail; [11]): 5 | Plant response rating (0 to 100), Waterhemp (waterhemp; [10]): 5 | Plant response rating (0 to 100), Waterhemp (waterhemp; [11]): 30 | Plant response rating, Corn (corn [3]; [13]): 60 | Plant response rating (0 to 100), Lambsquarters (lambsquarters; [10]): 10 | Plant response rating (0 to 100), Lambsquarters (lambsquarters; [11]): 10 | Plant response rating, Crabgrass, Large (large (Lg) crabgrass [4]; [13]): 90 | Wheat plant response rating (wheat; 1000 g ai/ha): 40 | Plant response rating (0 to 100), Wheat (wheat, winter; [10]): 0 | Plant response rating (0 to 100), Wheat (wheat, winter; [11]): 0 | Plant response rating (0 to 100), Chickweed (chickweed; [12]): 0 | Plant response rating (0 to 100), Chickweed (chickweed; [10]): 5 | Plant response rating (0 to 100), Chickweed (chickweed; [11]): 5 | Plant response rating (0 to 100), Barnyardgrass (barnyardgrass [5]; [12]): 0 | Plant response rating (0 to 100), Barnyardgrass (barnyardgrass [5]; [10]): 0 | Plant response rating (0 to 100), Barnyardgrass (barnyardgrass [5]; [11]): 0 | Plant response rating, Barnyardgrass (barnyardgrass [5]; 31 g ai/ha, 13 to 15 days): 5 | Plant response rating, Barnyardgrass (barnyardgrass [6]): 0 | Plant response rating, Sedge, Umbrella (sedge, umbrella): 20
